Experimental data reported in patent EP0382634A1, “Pyridazine derivatives, process for their preparation and pharmaceutical compositions containing them” (ELF SANOFI, priority 1989, dated 1990).

Key:
[1] = target: T1, récepteurs de type M1 (Homo sapiens, UniProt P11229); experiment: Muscarinic M1 receptor ligand binding (technique of Watson et al.); details: in vitro; read-out: concentration inhibitrice 50 sur le ligand des récepteurs M1
T1 construct: une spécificité marquée pour les récepteurs centraux de type M1 vis-à-vis des récepteurs périphériques de type M2; from tissue; host or cells: central (brain) tissue
T1 sequence (P11229 1-460): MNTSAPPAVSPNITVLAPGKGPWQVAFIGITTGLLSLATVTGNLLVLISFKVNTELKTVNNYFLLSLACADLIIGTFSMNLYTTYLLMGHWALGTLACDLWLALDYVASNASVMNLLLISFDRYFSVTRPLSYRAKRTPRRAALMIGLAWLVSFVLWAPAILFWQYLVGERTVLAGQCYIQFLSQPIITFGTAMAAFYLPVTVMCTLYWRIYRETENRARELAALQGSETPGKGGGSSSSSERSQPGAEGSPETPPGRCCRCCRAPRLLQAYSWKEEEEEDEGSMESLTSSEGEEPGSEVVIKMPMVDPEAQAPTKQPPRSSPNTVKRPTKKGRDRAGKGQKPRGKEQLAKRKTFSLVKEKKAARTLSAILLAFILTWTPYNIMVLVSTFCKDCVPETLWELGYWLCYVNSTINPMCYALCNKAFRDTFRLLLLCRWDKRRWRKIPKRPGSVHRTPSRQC
Description: In vitro, les composés (I) ont été essayés suivant la technique décrite par Watson J.D. et al. (Life Science, 1982, 31, 2019-2029) en ce qui concerne leur activité sur les récepteurs de type M1 et selon la technique décrite par Hammer R. et al. (Nature, 1980, 283, 90,92) et Hulme E.C. et al. (Molecular Pharmacology, 1978, 14, 737-750), en ce qui concerne leur activité sur les récepteurs de type M2.

[2] = tested on: rotations induites par la pirenzépine; experiment: Pirenzepine-induced rotations test (Worms et al., modified: oral dosing 4 h before pirenzepine); type: in vivo; details: 3 mg/kg body weight, 4 h before pirenzepine injection
Description: In vivo, les composés selon l'invention ont été essayés sur le test des rotations induites par la pirenzépine décrit par Worms P. et al. (Psychopharmacology, 1987, 93, 489-493) modifié en ce que l'administration des produits par voie orale qui a eu lieu 4 heures au lieu de 30 minutes avant l'injection de pirenzépine.

| IC50 [1] | Structure (SMILES) | inhibition des rotations induites par la pirenzépine [2] |
| --- | --- | --- |
| 30 nM | CCCc1cc(NCC2CCCN2CC)nnc1-c1ccccc1 (stereo not drawn) [SR 96181] | 71% |
| – | Cc1cc(NCc2ccccn2)nnc1-c1ccccc1 [SR 96204 A] | 67% |
